Test results published in BindingDB's records for doi:10.7270/Q2PR7TFT (Burnham Center For Chemical Genomics, 2010).

These compounds were tested against T1, Type-1 angiotensin II receptor (Homo sapiens, UniProt P30556) (assay: AT1 receptor agonists, dose response, selectivity assay for APJ receptor agonist project, cell-based, uHTS hits (AID 488865)).
T1 sequence (P30556 whole entry): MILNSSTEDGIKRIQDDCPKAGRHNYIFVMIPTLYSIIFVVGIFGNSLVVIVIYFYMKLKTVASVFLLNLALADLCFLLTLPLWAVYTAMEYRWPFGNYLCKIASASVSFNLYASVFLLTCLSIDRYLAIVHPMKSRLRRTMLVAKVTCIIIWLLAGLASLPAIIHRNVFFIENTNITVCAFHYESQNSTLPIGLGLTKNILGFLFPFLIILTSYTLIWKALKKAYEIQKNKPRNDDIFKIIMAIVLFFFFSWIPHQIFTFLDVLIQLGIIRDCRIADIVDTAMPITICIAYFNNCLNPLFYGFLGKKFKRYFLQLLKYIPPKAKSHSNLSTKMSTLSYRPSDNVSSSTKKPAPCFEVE

EC50 [µM] | SMILES
> 100 | CCCCCCC1=Cc2c/c(=C3/NN=C(c4cc(OC)c(OC)c(OC)c4)O3)c(=O)oc2=CC1=O
> 100 | COc1ccc(CN=Nc2cc(C)nc3ccc(OC)cc23)c(OC)c1
> 100 | CCOC(=O)C1C(Cn2cnc3ccccc32)=NC(=O)NC1c1cc(C)ccc1C (centres undefined) [ethyl 6-(benzimidazol-1-ylmethyl)-4-(2,5-dimethylphenyl)-2-oxidanylidene-3,4-dihydro-1H-pyrimidine-5-carboxylate]
> 100 | COC(=O)C1C(Cn2cnc3ccccc32)=NC(=O)NC1c1cc(C)ccc1C (centres undefined) [methyl 6-(benzimidazol-1-ylmethyl)-4-(2,5-dimethylphenyl)-2-oxo-3,4-dihydro-1H-pyrimidine-5-carboxylate]
